Test results reported in ChEMBL document CHEMBL1201862, “PubChem BioAssay data set” (2004).
Calls of active or inactive are those of the source.

Assays:
[1] = viability of PTEN-deleted HCT116 cells – cell-based, HCT116 PTEN knockout, dose response (AID 1047); assay type: functional;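 note: HCT116 colon tumor cells with PTEN knocked out; cells exposed to compound for 60 hours before readout; potency for loss of cell viability measured by luminescence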
[2] = viability of HCT116 lacking mutant beta-catenin – cell-based, human colon tumor, dose response (AID 1045); assay type: functional;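 note: HCT116 colon tumor cells with beta catenin knocked out; cells exposed to compound for 60 hours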
[3] = target: Heat shock protein HSP 90-alpha (Homo sapiens, UniProt P07900); assay type: functional, organism-based
INS1 = experiment: INS-1E survival protection against cytokine death – cell-based, luminescence, retest, dose response (AID 449756); assay type: functional; conditions: Rattus norvegicus;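 note: cell death triggered by IL-1 beta plus TNF-alpha plus IFN-gamma mixture; protective hits raise ATP signal compared with cytokine alone wells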
[4] = target: T1, Carboxy-terminal domain RNA polymerase II polypeptide A small phosphatase 1 (Homo sapiens, UniProt Q9GZU7); experiment: CTDSP1 inhibitors, concentration-response, biochemical, absorbance readout, ultra-high-throughput screen actives (AID 540297); assay type: functional
T1 sequence (Q9GZU7 whole entry): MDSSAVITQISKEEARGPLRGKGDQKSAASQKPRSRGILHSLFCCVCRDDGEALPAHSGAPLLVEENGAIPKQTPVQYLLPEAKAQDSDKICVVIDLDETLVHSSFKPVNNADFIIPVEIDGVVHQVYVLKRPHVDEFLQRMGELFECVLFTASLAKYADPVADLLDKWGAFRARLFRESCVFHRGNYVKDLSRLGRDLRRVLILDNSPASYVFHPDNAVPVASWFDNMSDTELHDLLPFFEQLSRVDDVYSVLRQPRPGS

[5] = Luminescence Cell-Based Dose Confirmation HTS to Identify Activators of 5'UTR Stem-Loop Driven Alpha-Synuclein mRNA Translation in H4 Neuroglioblastoma Cells. [Related pubchem assays: 1829 (Project Summary), 1814 (Primary HTS)]; assay type: functional
[6] = Luminescence Cell-Based Dose Response HTS to Identify Activators of Luciferase Translation or Activity in H4 […] Cells. [Related pubchem assays: 1829 (Project Summary), 1814 (Primary HTS)]; assay type: functional
H4 = experiment: Luminescence Cell-Based Dose Response HTS to Identify Activators of 5'UTR Stem-Loop Driven Prion Protein mRNA Translation in H4 Neuroglioblastoma Cells. [Related pubchem assays: 1829 (Project Summary), 1814 (Primary HTS)]; assay type: functional; conditions: Homo sapiens
[7] = microbe, parasite or virus in culture; assay type: functional; conditions: Mycobacterium tuberculosis
[8] = Luminescence Cell-Based Dose Retest to Confirm Inhibitors of Cancer Stem Cells. [Related pubchem assays (depositor defined):AID2717, AID2721]; assay type: functional; conditions: Homo sapiens
[9] = target: T2, Polyadenylate-binding protein 1 (Homo sapiens, UniProt P11940); experiment: MLLE binding blockers, Cy5 peptide tracer – biochemical, fluorescence polarization, Cy5-PAM2 peptide, secondary, miRNA deadenylation inhibitor project, dose response (AID 602260); assay type: functional; conditions: read-out: IC50_Mean
T2 sequence (P11940 whole entry, the tested form may be a part): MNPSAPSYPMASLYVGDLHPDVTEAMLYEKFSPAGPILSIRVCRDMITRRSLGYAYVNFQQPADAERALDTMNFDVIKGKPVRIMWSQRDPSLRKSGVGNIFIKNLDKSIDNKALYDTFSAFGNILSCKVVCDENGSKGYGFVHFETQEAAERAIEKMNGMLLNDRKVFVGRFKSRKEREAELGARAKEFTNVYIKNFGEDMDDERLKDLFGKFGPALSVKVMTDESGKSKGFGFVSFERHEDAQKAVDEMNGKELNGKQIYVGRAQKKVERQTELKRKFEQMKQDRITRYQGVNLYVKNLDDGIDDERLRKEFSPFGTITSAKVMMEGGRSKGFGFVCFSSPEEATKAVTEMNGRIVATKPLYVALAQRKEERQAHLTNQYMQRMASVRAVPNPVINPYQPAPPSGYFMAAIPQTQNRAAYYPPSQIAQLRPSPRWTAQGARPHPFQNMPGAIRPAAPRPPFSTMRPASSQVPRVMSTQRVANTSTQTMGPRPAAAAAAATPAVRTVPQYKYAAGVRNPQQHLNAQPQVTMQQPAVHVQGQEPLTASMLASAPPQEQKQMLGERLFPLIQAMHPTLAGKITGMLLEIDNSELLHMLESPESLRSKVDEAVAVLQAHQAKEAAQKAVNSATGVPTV

[10] = target: T2, Polyadenylate-binding protein 1; experiment: MLLE domain peptide-binding blockers, IC50 – biochemical, fluorescence polarization, FITC-PAM2 peptide, dose response (AID 602259); assay type: functional; conditions: read-out: IC50_Mean
[11] = system: Streptococcus sp. 'group A'; experiment: Streptococcus pyogenes SK(-)GAS viability under kanamycin – luminescence, BacTiterGlo, confirmation, counter-screen for streptokinase expression inhibitor project, dose response (AID 1900); assay type: functional, organism-based
[12] = Trypanosoma cruzi growth suppression in host cells – NIH3T3 host cells, beta-gal luminescence, confirmation (AID 2044); assay type: functional, cell-based;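 note: intracellular parasites grown in NIH/3T3 mouse fibroblasts as host cells; luminescent beta-galactosidase reporter signal from transgenic T. cruzi replicating inside host cells; inhibitors lower the luminescence signal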
[13] = NIH3T3 cell viability loss – ATP luminescence, mouse fibroblasts, counter-screen, dose response (AID 2010); assay type: functional, cell-based;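 note: cells exposed to compound for about 90 hours before reading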
Streptococcus = experiment: GAS UMAA2166 growth inhibition – luminescence, BacTiterGlo, counter-screen for streptokinase expression inhibitor project, dose response (AID 1915); assay type: functional, organism-based;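 note: potency for reduction of bacterial viability or growth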
[14] = target: T3, RNA-binding protein pos-1 (Caenorhabditis elegans, UniProt G5EF15); experiment: disruptors of C. elegans POS-1 RNA interaction – biochemical, fluorescence polarization, dose response (AID 1964);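 note: purified POS-1 fused to maltose binding protein made in E. coli; potency of compounds blocking POS-1 binding to fluorescent RNA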
T3 sequence (G5EF15 whole entry): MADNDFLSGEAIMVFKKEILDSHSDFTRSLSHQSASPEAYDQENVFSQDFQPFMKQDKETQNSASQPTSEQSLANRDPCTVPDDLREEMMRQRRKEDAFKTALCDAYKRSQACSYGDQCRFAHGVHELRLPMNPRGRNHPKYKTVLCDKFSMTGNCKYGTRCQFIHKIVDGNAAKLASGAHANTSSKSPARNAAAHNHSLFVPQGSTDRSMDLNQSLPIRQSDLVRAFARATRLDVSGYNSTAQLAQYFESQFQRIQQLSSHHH

[15] = target: T4, Zinc finger protein mex-5 (Caenorhabditis elegans, UniProt Q9XUB2); experiment: potency of MEX-5 RNA-binding blockers – biochemical, C. elegans, fluorescence polarization, dose response (AID 1960)
T4 sequence (Q9XUB2 whole entry): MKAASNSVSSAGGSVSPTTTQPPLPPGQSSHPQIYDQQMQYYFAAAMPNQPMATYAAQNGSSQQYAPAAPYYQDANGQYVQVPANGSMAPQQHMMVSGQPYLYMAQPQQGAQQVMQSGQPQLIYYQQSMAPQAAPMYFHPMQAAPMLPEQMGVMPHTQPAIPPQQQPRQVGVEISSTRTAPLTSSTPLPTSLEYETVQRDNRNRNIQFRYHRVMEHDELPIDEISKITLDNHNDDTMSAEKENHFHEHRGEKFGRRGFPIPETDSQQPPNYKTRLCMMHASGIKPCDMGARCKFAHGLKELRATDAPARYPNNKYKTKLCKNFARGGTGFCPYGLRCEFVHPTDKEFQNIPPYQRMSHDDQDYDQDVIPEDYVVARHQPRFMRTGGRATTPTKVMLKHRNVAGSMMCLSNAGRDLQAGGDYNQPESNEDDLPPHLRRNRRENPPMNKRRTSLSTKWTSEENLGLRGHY

[16] = target: Glucose-6-phosphate 1-dehydrogenase (Homo sapiens, UniProt P11413); experiment: inhibition of Homo sapiens G6PD, dose series – biochemical, fluorescence, selectivity assay for P. falciparum G6PD inhibitor project, dose response (AID 504792); assay type: functional
Chain of Glucose-6-phosphate 1-dehydrogenase (P11413 whole entry): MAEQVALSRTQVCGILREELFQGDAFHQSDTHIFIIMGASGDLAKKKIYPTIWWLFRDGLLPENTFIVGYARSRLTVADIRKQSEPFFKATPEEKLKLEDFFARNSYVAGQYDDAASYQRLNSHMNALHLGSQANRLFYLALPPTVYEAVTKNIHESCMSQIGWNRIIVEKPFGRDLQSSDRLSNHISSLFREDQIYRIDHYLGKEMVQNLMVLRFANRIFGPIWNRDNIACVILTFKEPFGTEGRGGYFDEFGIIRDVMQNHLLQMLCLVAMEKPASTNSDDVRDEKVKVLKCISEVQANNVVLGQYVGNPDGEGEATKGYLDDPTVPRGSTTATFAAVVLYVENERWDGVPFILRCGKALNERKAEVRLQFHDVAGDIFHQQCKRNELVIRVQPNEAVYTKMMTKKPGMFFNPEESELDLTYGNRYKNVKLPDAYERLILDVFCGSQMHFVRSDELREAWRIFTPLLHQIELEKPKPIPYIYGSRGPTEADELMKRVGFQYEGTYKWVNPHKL

[17] = target: T5, Ubiquitin-conjugating enzyme E2 N (Homo sapiens, UniProt P61088); assay type: functional;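 note: Dose-response confirmation in a TR-FRET assay detecting UBC13-driven polyubiquitin chain formation, inhibition measured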
T5 sequence (P61088 whole entry): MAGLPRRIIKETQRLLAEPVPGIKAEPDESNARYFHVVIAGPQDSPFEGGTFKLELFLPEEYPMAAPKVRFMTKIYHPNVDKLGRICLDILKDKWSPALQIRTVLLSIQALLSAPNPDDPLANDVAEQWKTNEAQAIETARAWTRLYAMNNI

[18] = P. falciparum Dd2 growth inhibitors, dose response, SYBR Green, cherry-picked samples (AID 1159567); assay type: functional, cell-based
Cytochrome P450 1A2 = target: T6, Cytochrome P450 1A2 (Homo sapiens, UniProt P05177);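 note: PubChem cytochrome P450 panel assay, CYP1A2 panel member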
T6 sequence (P05177 whole entry): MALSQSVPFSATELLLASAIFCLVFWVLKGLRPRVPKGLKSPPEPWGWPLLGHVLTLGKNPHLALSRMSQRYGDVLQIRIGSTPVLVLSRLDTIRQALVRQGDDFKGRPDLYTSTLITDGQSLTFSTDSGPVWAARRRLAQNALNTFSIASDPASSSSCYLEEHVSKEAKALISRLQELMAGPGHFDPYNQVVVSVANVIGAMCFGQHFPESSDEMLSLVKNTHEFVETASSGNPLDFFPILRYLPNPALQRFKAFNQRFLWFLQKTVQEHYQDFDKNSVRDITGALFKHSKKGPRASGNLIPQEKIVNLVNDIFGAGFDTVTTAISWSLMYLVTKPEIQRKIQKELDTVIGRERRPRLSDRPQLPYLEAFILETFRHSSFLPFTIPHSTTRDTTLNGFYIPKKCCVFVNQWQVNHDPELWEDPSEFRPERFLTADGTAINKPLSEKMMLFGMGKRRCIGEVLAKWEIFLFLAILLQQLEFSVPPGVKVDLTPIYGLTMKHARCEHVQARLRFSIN

## CCN1C/C(=C/c2cccc([N+](=O)[O-])c2)C(=O)/C(=C/c2cccc([N+](=O)[O-])c2)C1
[1]
  EC50: 0.085 µM (active)
[2]
  EC50: 0.062 µM (active)
[3]
  AC50: 4.21 µM (active)
INS1
  AC50: 2.24 µM (active)

## O=C1CC(=O)N2N=C(c3ccc([N+](=O)[O-])cc3)SC2=N1
[4]
  IC50: 5.67 µM (active)

## c1ccc(-c2ccc3c(n2)CCCO3)cc1
[5]
  EC50: 47.7 µM (active)
[6]
  EC50: 55.5 µM (active)
H4
  EC50: 7.05 µM (active)

## O=C(OCc1cc(=O)n2c(n1)sc1ccccc12)c1ccc2c(=O)n3c(nc2c1)CCC3
[4]
  IC50: 5.85 µM (active)

## Cc1ccc(Nc2nc(N)c([N+](=O)[O-])c(N3CCCC(C)C3)n2)cc1C (centres undefined)
[7]
  CC50: 40 µM (active)
[3]
  AC50: 8.91 µM (active)

## Cn1c(N=C(S)Nc2ccccc2)nc2ccccc21
[7]
  CC50: > 40 µM (active)

## Cc1ccc(C(=O)Cn2nnc3ccccc32)cc1
[5]
  EC50: 0.276 µM (active)
[6]
  EC50: 0.325 µM (active)
H4
  EC50: 77.2 µM (active)

## Cc1ccc(OC/C(O)=C(\C#N)c2nc3ccccc3s2)cc1
[7]
  CC50: > 40 µM (active)
[8]
  AC50: 6.14 µM (active)

## Cc1cc(Nc2cc(Cl)nc(Sc3ccc(NC(=O)C4CC4)cc3)n2)[nH]n1
[7]
  CC50: 35.8 µM (active)

## CCOc1ccc2c(c1)-c1c(ssc1=S)C(C)(C)N2C(=O)CSC1=NCCS1
[9]
  IC50: > 66 µM (inactive)
[10]
  IC50: > 66 µM (inactive)

## O=C(CCc1ccccc1)NC(=S)Nc1ccc(S(=O)(=O)N2CCOCC2)cc1
[9]
  IC50: > 66 µM (inactive)
[10]
  IC50: > 66 µM (inactive)

## COc1ccc(C(=S)Nc2ccc(C)cc2)cc1
[9]
  IC50: > 66 µM (inactive)
[10]
  IC50: > 66 µM (inactive)

## CC(=O)c1ccc(N2CCC(c3cc(-c4ccc(Cl)cc4Cl)[nH]n3)CC2)c([N+](=O)[O-])c1
[11]
  EC50: 4.36 µM (active)
[12]
  EC50: 1.24 µM (active)
[7]
  CC50: 29.2 µM (active)
[13]
  EC50: > 60 µM (inconclusive)
Streptococcus
  EC50: 8.12 µM (active)
[8]
  AC50: 2.19 µM (active)

## COCCNC(=O)C(c1ccncc1)N(Cc1ccccc1)C(=O)Cn1nnc2ccccc21 (centres undefined)
[5]
  EC50: 4.27 µM (active)
[6]
  EC50: 15.7 µM (active)
H4
  EC50: 1.08 µM (active)

## Cc1ccc(F)cc1NC(=O)c1sc2ncn(CC(=O)N3CCN(c4ccccn4)CC3)c(=O)c2c1C
[5]
  EC50: > 120 µM (not active)
[6]
  EC50: > 120 µM (not active)
H4
  EC50: > 120 µM (not active)

## CC1CC(C)CN(C(=O)COC(=O)/C=C/c2ccco2)C1 (centres undefined)
[4]
  IC50: 19.9 µM (active)

## CCCCc1cn([C@@H](CCCCN)C(=O)N2CCNCC2)nn1
[14]
  EC50: 31.9 µM (active)
[15]
  EC50: 26.1 µM (active)
[9]
  IC50: > 66 µM (inactive)
[10]
  IC50: 21 µM (inactive)

## CC(SCC(=O)Nc1ccccc1)c1nc(O)c2ccccc2n1 (centres undefined)
[16]
  IC50: 22.3 µM (inactive)

## NC(=S)N=Nc1c(O)[nH]c2ccc(F)cc12
[9]
  IC50: > 66 µM (inactive)
[10]
  IC50: > 66 µM (inactive)

## CCN(CC)c1nc(N)nc(NS(=O)(=O)c2ccc(Cl)cc2)n1
[16]
  IC50: > 80 µM (inactive)

## O=c1c2ccccc2nnn1COc1ccc(Cl)cc1Br
[5]
  EC50: 0.383 µM (active)
[6]
  EC50: 29.7 µM (active)
H4
  EC50: 15.6 µM (active)

## O=[N+]([O-])c1cccc(C(=S)N2CCN(c3ccccc3)CC2)c1
[9]
  IC50: > 66 µM (inactive)
[10]
  IC50: > 66 µM (inactive)

## CCCS(=O)(=O)N1CCN=C1SCc1cccnc1
[9]
  IC50: > 66 µM (inactive)
[10]
  IC50: > 66 µM (inactive)

## O=[N+]([O-])c1ccc2c(c1)-c1ccccc1C2O (centres undefined)
[16]
  IC50: > 80 µM (inactive)

## CON=C(C(=O)NC1C(=O)N2C(C(=O)O)=C(CSc3nc(=O)c(=O)[nH]n3C)CSC12)c1csc(N)n1 (centres undefined)
[4]
  IC50: 2.89 µM (active)

## COc1ccc(Cl)cc1Nc1nc(-c2sc(NC(=O)c3ccccc3)nc2C)cs1
[1]
  EC50: 7.12 µM (active)
[2]
  EC50: 10.3 µM (active)

## CCOc1ccc(Cl)cc1/C=N/NC(N)=O
[16]
  IC50: > 80 µM (inactive)
[17]
  IC50: > 20 µM (inactive)

## COCC(=O)N1[C@H](CO)[C@@H](c2ccccc2)C12CN(Cc1cc(F)ccc1F)C2
[18]
  AC50: 18.1 µM (active)

## CN1C(=O)c2cc(NC(=O)c3cnccn3)ccc2OC[C@H]2O[C@@H](CC(=O)N[C@H]3CCN(Cc4ccccc4)C3)CC[C@H]21
[18]
  AC50: 6.41 µM (active)

## N#C[C@@H]1[C@H](c2ccccc2-c2ccc(F)cc2)[C@H](CO)N1C(=O)NC1CCCC1
[18]
  AC50: 5.12 µM (active)

## O=C(O)c1cccc(-n2cccc2/C=C2/NC(=O)N(c3cccc(Cl)c3)C2=O)c1
[4]
  IC50: 9.53 µM (active)

## O=C1C(O)=C(C2CCC(c3ccc(Cl)cc3)CC2)C(=O)c2ccccc21 (centres undefined)
[7]
  CC50: 12.8 µM (active)
Cytochrome P450 1A2
  AC50: 10 µM (inconclusive)
